According to article PMC11002875, “Linking triphenylphosphonium cation to a bicyclic hydroquinone improves their antiplatelet effect via the regulation of mitochondrial function” (Redox Biology, 2024):

Tests used:
[1] = system: platelet-rich plasma; test: Platelet activation markers in PRP (flow cytometry); type: cell-based, Human; conditions: collagen 2 μg/mL
Protocol: (§1) Platelet aggregation in platelet-rich plasma. The blood sample was obtained from voluntary donors (10 days without antiplatelet medication) who agreed to participate after signing informed consent (Scientific Ethics Committee of the University of Talca N° 04–2022). Venous blood was collected by phlebotomy into 3.2% sodium citrate tubes. The tubes were centrifuged at 250 g for 12 min to obtain PRP. After reserving the PRP, the tubes were centrifuged again at 900 g for 10 min to obtain platelet-poor plasma (PPP). For the aggregation reaction, PRP was adjusted to 200-250 × 10^6 platelets/mL with PPP [[63], [64], [65]]. Platelet counting was performed in a counter (Mindray BC-3000 Plus hematology counter, Japan). The samples were preincubated with the compounds under study for 5 min at 37 °C in the aggregometer (Agg RAM- Helena Biosciences). Aggregation was initiated with collagen 2 μg/mL and the reaction was evaluated for 5 min at 37 °C in shaking at 1000 rpm.
Platelet activation markers. […] Aliquots of the reaction were then collected and labeled separately with human antibodies (BD Biosciences, San José, CA, USA) for P-selectin, CD63, activated GPIIb/IIIa (PAC-1), and fibrinogen to assess the levels of each marker on the platelet membrane. The sample was acquired using the BD Facs Lyric flow cytometer (BD Biosciences, USA). […]

[2] = system: Washed platelets; test: Mitochondrial membrane potential (TMRM); type: cell-based, Human; conditions: compounds 1, 5 and 10 μM, 20 min
Protocol: (§2) Human platelet purification. The blood sample was obtained from voluntary donors (10 days without antiplatelet medication) who agreed to participate after signing informed consent (Scientific Ethics Committee of the University of Talca N° 04–2022). Briefly, blood anticoagulated with acid-citrate-dextrose (ACD) was obtained in a 4:1 v/v ratio. The sample was centrifuged for 12 min at 250 g to obtain platelet-rich plasma (PRP). Subsequently, the PRP was centrifuged for 8 min at 900 g to obtain the platelet pellet. The plasma supernatant was removed, and the platelets were resuspended in Tyrodes buffer without calcium plus ACD in a ratio of 5:1 v/v. The platelets were centrifuged once more for 8 min at 900 g and the pellet was resuspended in Tyrodes buffer without calcium. Finally, the platelets were counted (Mindray BC-3000 Plus hematology counter, Japan), adjusted to the desired concentration, and used within 3 h.
Mitochondrial membrane potential (ΔΨm). Washed platelets (50 × 10^6 platelets/mL) were labeled with a 100 nM tetramethylrhodamine methyl ester (TMRM) probe and incubated with compounds (1, 5 and 10 μM) for 20 min at 37 °C. The sample was acquired in the BD Facs Lyric flow cytometer (BD Biosciences, USA). Representative dot plots are available in Supplementary Figs. 12, 24, and 25. Carbonyl cyanide 4-(trifluoromethoxy) phenylhydrazone (FCCP) 1 μM was used as a control for decreasing the mitochondrial membrane potential.

[3] = system: platelet-rich plasma; test: Platelet aggregation in platelet-rich plasma; type: cell-based, Human; conditions: collagen 2 μg/mL; PRP
Protocol: as §1

[4] = system: complex I from Y. lipolytica mitochondrial membranes reconstituted into proteoliposomes; test: Proton pumping and activity of reconstituted complex I (ACMA quench in proteoliposomes); type: biochemical
Protocol: Proton pumping and activity of reconstituted complex I. Purification of complex I from Y. lipolytica mitochondrial membranes and reconstitution of complex I into Proteoliposomes was performed as previously described. Briefly, complex I was reconstituted in proteoliposomes (Cxl), and then ACMA (9-Amino-6-Chloro-2-Methoxyacridine) was added to quantify the proton pumping activity. Fluorescence changes were monitored at 25 °C in a Fluorolog-3 spectrofluorometer (Horiba Scientific). Settings: λex = 430 nm, λem = 475, slit 5 nm, time increment 0.2 s. Proteoliposomes (15 μg protein) were diluted in 2 ml assay buffer (20 mM Mops pH 7.2, 80 mM KCl, 0.5 μM valinomycin). After starting the measurement, 0.5 μM ACMA, 70 μM decylubiquinone (DBQ), 125 μM NADH, NP4 […]/vehicle, and Carbonyl cyanide m-chlorophenyl hydrazone (CCCP) 5 μM were added after 50, 100, 150, 200 and 300 s, respectively. The measurements were done in triplicate for 5, 15, 30, 45, 60 and 100 μM NP4. The Average over the time after the addition of NADH/NP4/CCCP till the next addition was taken from each measurement. The quenching after NADH the addition was taken as the zero % value and the dequench with CCCP was set to 100%. The zero value was subtracted from the dequenching with NP4 and the max dequenching with CCCP. The DMSO negative control was measured in duplicate.

[5] = system: Washed platelets; test: Cellular cytotoxicity by release of lactate dehydrogenase (LDH); type: cell-based, Human; conditions: Supplementary Fig. 1
Protocol: as §2
Cellular cytotoxicity by the release of lactate dehydrogenase (LDH). Washed platelets (200-250 × 10^6 platelets/mL) were incubated with the compounds under study or vehicle for 15 min at 37 °C. Then, the platelets were centrifuged at 900 g for 8 min to collect the supernatant. […] The absorbance was analyzed at 490 nm (Microplate Reader Thermo Scientific Multiskan Go, Finland).

## Cc1c(C)c(O)c2c(c1O)C(=O)C(CCCC[P+](c1ccccc1)(c1ccccc1)c1ccccc1)=CC2(C)C.[Br-] [NP4, (4-(5,8-dihydroxy-4,4,6,7-tetramethyl-1-oxo-1,4-dihydronaphthalen-2-yl)butyl)triphenyl phosphonium bromide]
[1]
  Bound fibrinogen in platelet-rich plasma: significant decrease
  P-selectin exposure in platelet-rich plasma: significant decrease
[2]
  Mitochondrial membrane potential (ΔΨm): significantly decrease
[3]
  Platelet aggregation in platelet-rich plasma: significant decrease
[4]; ACMA dequench relative to CCCP (100%), 5-100 μM NP4
  IC50: 37.7 ± 1.14 µM
[4]; ACMA fluorescence, proteoliposomes
  Concentrations that decouple complex I in liposomes: 30 to 60 µM
[5]
  Safe concentrations (LDH release): below 10 μM
